Laboratory results published in patent publication US10550388B2, “Targeting pleiotrophin signaling to limit high-grade glioma invasion” (The Board of Trustees of the Leland Stanford Junior …, priority 2017, dated 2020).

How the values were obtained:
[1] = system: SU-DIPG-XIII FL cells; assay: shRNA-expressing lentivirus injected into the SVZ of orthotopically xenografted mice; assay type: in vivo, NSG mice; conditions: vs scrambled shRNA control; for DIPG cells invading the SVZ: 16 weeks following pontine xenograft
Experimental: NSG mice at age P34-36 were orthotopically xenografted with SU-DIPG-XIII frontal lobe CMV-GFP-luciferase cells, in a similar procedure to as previously described (Grasso et al., supra; Venkatesh et al. (2015) Cell 161, 803-816). Briefly, a single-cell suspension of SU-DIPG-XIII frontal lobe CMV-GFP-luciferase cells at passage 16-19 was prepared in sterile HBSS immediately before beginning the xenograft procedure. 600,000 cells in 3 μL were stereotactically injected into the pons of the left hemisphere of NSG mice, through a 31-gauge burr hole. Stereotactic coordinates used were: 1 mm lateral to midline, 0.8 mm posterior to lambda suture, and 5 mm deep. Cells were injected at a rate of 0.4 μL/min using a digital pump and a 31-gauge Hamilton syringe. After infusion of cells, the syringe needle was kept in place for 2 minutes, and then withdrawn manually at a rate of 0.875 mm/min to minimize the backflow of cells.
(§1) Mice used for shRNA lentivirus studies received shRNA-expressing lentivirus in the SVZ at P27-29 and DIPG cells in the left pons at P34-36. For lentiviral injections, 2 μL of shRNA-expressing lentivirus were stereotactically injected into the SVZ. Stereotactic coordinates used were: 1.3 mm lateral to midline, 0.1 mm posterior to bregma suture, and 2 mm deep. Virus was injected and the needle was withdrawn according to the same procedure as described above.
Mice were imaged using an IVIS Spectrum to ensure tumor engraftment and monitor tumor size. Mice were anesthetized under 1% isoflurane, intraperitoneally injected with luciferin (15 mg/kg), and imaged for bioluminescence every minute until the peak total flux was reached.
For quantification of DIPG invasion of the SVZ after knock down of targets in the SVZ, 5 NSG mice per group were injected with shRNA-expressing lentivirus in bilateral SVZs and orthotopically xenografted with SU-DIPG-XIII FL in the left pons. Mice were perfused for analysis 16 weeks after xenograft. A 1:6 series of coronal slices from each mouse brain was immunostained and imaged, and the number of GFP^+ HNA^+ glioma cells within 200 μm of the lateral ventricles in all slices containing lateral ventricles was manually counted.
For quantification of neural stem/precursor cells in the SVZ after knock down of PTN in the SVZ, a 1:6 series of coronal slices from each mouse was immunostained and imaged, and the number of Sox2^+ neural stem/precursor cells in a 20×Z-stack was manually counted. The density of Sox2^+ cells was calculated as cells/mm^3.

[2] = system: pleiotrophin; assay: Knockdown of pleiotrophin expression in the mouse SVZ; assay type: in vivo; conditions: stereotactic injection into the mouse SVZ; vs scrambled shRNA control
Experimental: as §1
Mice were intraperitoneally injected with Avertin (tribromoethanol) for anesthesia, and then transcardially perfused with 20 mL of ice-cold PBS. Brains were dissected out and fixed in 4% paraformaldehyde in PBS overnight at 4° C., and were then transferred to 30% sucrose in PBS for cryoprotection. Brains were embedded in Tissue-Tek O.C.T. (Sakura, Torrance, Calif.). Brains from mice older than P10 were sliced into 40 μm coronal or sagittal sections using a sliding microtome (Microm HM450; Thermo Scientific, Waltham, Mass.). Brains from mice age P0 to P10 were sliced into 25 μm coronal sections using a cryostat (Leica Biosystems CM3050 S; 1058 Wetzlar, Germany). For immunohistochemistry, a 1 in 6 series of 25 μm or 40 μm sections was incubated in blocking solution (3% normal donkey serum, 0.3% Triton X-100 in TBS) at room temperature for 1 hour. […]

[3] = system: SU-DIPG-XIII FL cells; assay: Matrigel invasion assay (Boyden chamber) of DIPG cells; assay type: cell-based, human; conditions: 72 hours; for DIPG invasion toward SVZ hNPC CM: inhibitor added to the cells in the top insert, dose curve, vehicle DMSO control
Experimental: To test for chemoattraction and invasion toward neural precursor cell conditioned media or another candidate chemoattractant, a single-cell suspension of 100,000 DIPG cells in Tumor Stem Media (TSM) base (with B27 (−A) and heparin, without growth factors) was seeded in the top inserts of BioCoat growth factor reduced Matrigel invasion chambers (Corning, Bedford, Mass.), after rehydration of the inserts. Chemoattractant media was added to the bottom of the chamber. All conditions were plated in triplicate. After 72 hours, media was aspirated, and the non-invading cells on top of the layer of Matrigel were scrubbed off. The invading cells were fixed in 4% paraformaldehyde and then stained with 0.1% crystal violet in 10% methanol in distilled water. The number of invading cells was quantified by the intensity of the crystal violet dye on the invading side of the Matrigel. The dye was collected in 10% acetic acid, and absorbance was measured at 595 nm.
To test the ROCK or HSP90 inhibitors in the Matrigel invasion assay, the inhibitors were added to the suspension of glioma cells in TSM base (with B27 (−A) and heparin) seeded in the top inserts at the appropriate concentrations, and neural precursor cell conditioned media was plated in the bottom chambers. The rest of the procedure was performed as described above.

[4] = system: SU-DIPG-XIII FL cells; assay: CellTiter-Glo cell viability assay; assay type: cell-based, human; conditions: increasing doses of inhibitor; 72 hours
Experimental: To assess cell viability, 5,000 DIPG cells per well were seeded in base media or full growth media in a 96-well plate. Inhibitors were added at the appropriate concentrations. After 72 hours, CellTiter-Glo reagent 2.0 was added at a 1:1 ratio, and cells were lysed. Luminescence was measured after stabilization of signal for 10 minutes at room temperature.

[5] = rodent models (Egorin et al. 2001); cited from earlier work

sh-Ptn: lentivirus-expressed shRNA against mouse PTN, Sigma TRCNO000071676, SEQ ID NO: 8 (CCGGGCACAATGCTGACTGTCAGAACTCGAGTTCTGACAGTCAGCATTGTGCTTTTTG)
DIPG cells invading the SVZ [1]: fewer orthotopically xenografted GFP^+ HNA^+ SU-DIPG-XIII FL cells invaded the SVZ
DIPG cells invading the SVZ ([1]; listed as shRNA targeting Ptn): fewer DIPG cells invaded the SVZ
density of Sox2+ neural stem/precursor cells in the SVZ [1]: equivalent
tumor engraftment (bioluminescent flux) [1]: equivalent
density of Sox2+ neural stem/precursor cells in the SVZ ([1]; listed as Ptn shRNA): equivalent numbers of Sox2^+ NPCs
knockdown of pleiotrophin expression [2]: effective knockdown of pleiotrophin expression

CCn1c(-c2nonc2N)nc2cnc(Oc3cccc(NC(=O)c4ccc(OCCN5CCOCC5)cc4)c3)cc21 [GSK 269962A, reference compound]
DIPG invasion toward SVZ hNPC CM [3]: decreased DIPG invasion toward SVZ hNPC CM in a dose-dependent manner
cell viability of DIPG cells [4]: do not affect cell viability at sub-μM concentrations

CC1=C(C(=O)Nc2cc3cn[nH]c3cc2F)C(c2ccc(C(F)(F)F)cc2)CC(=O)N1 (stereo not drawn) [GSK 429286, reference compound]
DIPG invasion toward SVZ hNPC CM [3]: decreased DIPG invasion toward SVZ hNPC CM in a dose-dependent manner
cell viability of DIPG cells [4]: do not affect cell viability at sub-μM concentrations

C=CCNC1=C2C[C@@H](C)C[C@H](OC)[C@H](O)[C@@H](C)/C=C(\C)[C@H](OC(N)=O)[C@@H](OC)/C=C\C=C(/C)C(=O)NC(=CC1=O)C2=O [17-AAG, tanespimycin, reference compound]
concentrations at which invasion toward SVZ hNPC CM is decreased ([3]; in vitro, inhibitor in the top insert): above 1 μM
Brain penetration [5]: less than 1 μM
